Source: article PMC6268855, “New Trifluoromethyl Triazolopyrimidines as Anti-Plasmodiumfalciparum Agents” (Molecules, 2012)

How the values were obtained:
Type in all cases: cell-based
[1] = system: Plasmodium falciparum chloroquine-resistant W2 clone; experiment: [3H]-hypoxanthine incorporation assay on P. falciparum-infected erythrocytes; conditions: read-out: IC50 Plasmodium Falciparum Hypoxanthine
Procedure: (§1) Briefly, the parasites were kept as described at 37 °C in human erythrocytes (A^+) in complete medium (RPMI 1640 supplemented with 10% human sera blood group A^+, 2% glutamine, and 7.5% NaHCO3) either in Petri dishes in a candle jar or in 25-cm culture flasks in an environment containing a gas mixture atmosphere (3% O2, 5% CO2 and 91% N2). Before testing, the ring-stage parasites were synchronized by sorbitol; the suspension was adjusted for parasitemia and hematocrit as described below for each test used.
(§2) The effects of compounds against the W2 P. falciparum blood cultures were evaluated through incorporation of ^3H hypoxanthine (Perkin Elmer, Waltham, MA, USA) by the parasites. Alternatively, compound effects were also examined using monoclonal antibodies to a commercially available parasite histidine and alanine-rich protein (HRP2) (MPFM ICLLAB-55A®, MPFG55P ICLLAB®, Immunology Consultants Laboratory Inc. (ICL), Portland, OR, USA), as described previously. The [3H]-hypoxanthine assay was performed with 1% of parasitemia and 1% of hematocrit, and the level of isotope incorporation was read in a beta-counter (Perkin Elmer). The anti-HRP2 test was performed with 0.05% parasitemia and 1.5% hematocrit, and the quantification of protein was determined using a specific read at 450 nm in a spectrophotometer (SpectraMax340PC^384, Molecular Devices, Sunnyvale, CA, USA). Drug activities were expressed by the half-maximal inhibitory dose (IC50) compared to the drug-free controls and estimated using the curve-fitting software Origin 8.0 (OriginLab Corporation, Northampton, MA, USA).

[2] = system: Plasmodium falciparum chloroquine-resistant W2 clone; experiment: anti-HRP2 test on P. falciparum-infected erythrocytes; conditions: for IC50: Plasmodium falciparum, read-out: IC50 Plasmodium Falciparum Anti-HRP2; for activity class against P. falciparum: class by IC50
Procedure: as §1, §2

[3] = system: human hepatoma cell line (HepG2); conditions: MTT, 24 h incubation
Procedure: For in vitro cytotoxicity experiments, the cell monolayer was trypsinized, washed with culture medium, distributed in a flat-bottomed 96-well plate (5 × 10^3 cells/well), and finally incubated for 18 h at 37 °C for cell adherence.
For cytotoxicity testing, we used the (3-(4,5-dimethylthiazol-2-yl)-2,5-diphenyltetrazolium bromide (MTT) assay, performed as described in the literature. The HepG2 cell line was incubated with 20 µL of the compounds in different concentrations (200–25 µg/mL) for 24 h in an atmosphere of 5% CO2 at 37 °C.
For the MTT assay, which evaluates mitochondrial viability, 20 µL of MTT solution (5 mg/mL) was added, and the plates were incubated for an additional 3 h. After incubation, the supernatant was carefully removed from the wells, followed by addition of 100 µL DMSO with thorough mixing. Optical densities at 570 and 630 nm (background) were determined by an ELISA reader.
Cell viability was expressed as the percentage of control absorbance obtained in untreated cells after subtracting the absorbance from appropriate background. Lastly, the minimum lethal dose for 50% of the cells (MLD50) was determined as previously described in the literature. The ratio between MLD50 and drug activity (IC50) in vitro was used to determine the selectivity index (SI).

[4] = Erythrocyte, W2 clone, 0.05% parasitemia, 1.5% hematocrit
[5] = Erythrocyte, W2 clone, 1% parasitemia, 1% hematocrit

Structure (SMILES)	IC50 ([1]; W2, Erythrocyte)	IC50 ([2]; W2, Erythrocyte)	MDL50 HepG2 [3]	IC50 [2, 4]	IC50 [1, 5]	activity class against P. falciparum ([2]; W2 clone)
CCN(CC)CCCC(C)Nc1ccnc2cc(Cl)ccc12 (stereo not shown) [Chloroquine, reference compound]	0.23 µM	0.22 µM	490 µM	–	–	–
Cc1cc(Nc2cccc3ccccc23)n2nc(C(F)(F)F)nc2n1 [Compound 4, 5-Methyl-7-(naphthalen-1-ylamine)-2-(trifluoromethyl)[1,2,4]triazolo[1,5-a]pyrimidine]	–	–	326 µM	2.2 µM	–	–
Cc1cc(Nc2ccc3ccccc3c2)n2nc(C(F)(F)F)nc2n1 [Compound 5, 5-Methyl-7-(naphthalen-2-ylamine)-2-(trifluoromethyl)[1,2,4]triazolo[1,5-a]pyrimidine]	–	–	425 µM	0.023 ± 0.002 µM	–	–
Cc1cc(Nc2ccccc2)n2nc(C(F)(F)F)nc2n1 [Compound 6, 5-Methyl-7-phenylamine-2-(trifluoromethyl)[1,2,4]triazolo[1,5-a]pyrimidine]	–	–	>682 µM	3 ± 2 µM	10.2 ± 5 µM	–
Cc1cc(Nc2cccc(Cl)c2)n2nc(C(F)(F)F)nc2n1 [Compound 7, 7-(3-Chlorophenylamine)-5-methyl-2-(trifluoromethyl)[1,2,4]triazolo[1,5-a]pyrimidine]	–	–	373 µM	1.83 ± 1.1 µM	1.22 µM	–
Cc1cc(Nc2ccc(Cl)c(Cl)c2)n2nc(C(F)(F)F)nc2n1 [Compound 8, 7-(3,4-Dichlorophenylamine)-5-methyl-2-(trifluoromethyl)[1,2,4]triazolo[1,5-a]pyrimidine]	–	–	>552 µM	0.55 ± 0.66 µM	0.11 ± 0.05 µM	–
Cc1cc(Nc2ccc(Cl)cc2Cl)n2nc(C(F)(F)F)nc2n1 [Compound 9, 7-(2,4-Dichlorophenylamine)-5-methyl-2-(trifluoromethyl)[1,2,4]triazolo[1,5-a]pyrimidine]	–	–	320 µM	2.7 ± 2.21 µM	3.32 ± 1.1 µM	–
Cc1cc(Nc2c(F)cccc2F)n2nc(C(F)(F)F)nc2n1 [Compound 10, 7-(2,6-Difluorophenylamine)-5-methyl-2-(trifluoromethyl)[1,2,4]triazolo[1,5-a]pyrimidine]	–	–	337 µM	> 69.9 µM	> 149 µM	Inactive
COc1ccc(Nc2cc(C)nc3nc(C(F)(F)F)nn23)cc1 [Compound 11, 7-(4-Methoxyphenylamine)-5-methyl-2-(trifluoromethyl)[1,2,4]triazolo[1,5-a]pyrimidine]	–	–	>619 µM	0.4 ± 0.09 µM	1.5 ± 1.2 µM	–
COc1cc(Nc2cc(C)nc3nc(C(F)(F)F)nn23)cc(OC)c1 [Compound 12, 7-(3,5-Dimethoxyphenylamine)-5-methyl-2-(trifluoromethyl)[1,2,4]triazolo[1,5-a]pyrimidine]	–	–	498 µM	2.5 ± 0.05 µM	0.36 ± 0.1 µM	–
Cc1cc(Nc2cc(Cl)cc(Cl)c2)n2nc(C(F)(F)F)nc2n1 [Compound 13, 7-(3,5-Dichlorophenylamine)-5-methyl-2-(trifluoromethyl)[1,2,4]triazolo[1,5-a]pyrimidine]	–	–	320 µM	1.47 ± 0.11 µM	0.83 ± 0.58 µM	–
COc1cc(Nc2cc(C)nc3nc(C)nn23)cc(OC)c1 [Compound 14, 7-(3,5-Dimethoxyphenylamine)-2,5-dimethyl[1,2,4]triazolo[1,5-a]pyrimidine]	–	–	515 µM	3.84 ± 0.4 µM	15.1 ± 10 µM	–
Cc1cc(Nc2cc(Cl)cc(Cl)c2)n2nc(C)nc2n1 [Compound 15, 7-(3,5-Dichlorophenylamine)-2,5-dimethyl[1,2,4]triazolo[1,5-a]pyrimidine]	–	–	415 µM	> 162 µM	149 µM	Inactive
Cc1cc(Nc2ccc(C(F)(F)F)cc2)n2nc(C)nc2n1 [Compound 16, 2,5-Dimethyl-7-(4-(trifluoromethyl)phenylamine)-[1,2,4]triazolo[1,5-a]pyrimidine]	–	–	446 µM	0.3 µM	0.4 ± 0.06 µM	–
FC(F)(F)c1cc(Nc2cc(Cl)cc(Cl)c2)n2nc(C(F)(F)F)nc2n1 [Compound 17, 7-(3,5-Dichlorophenylamine)-2,5-bis(trifluoromethyl)[1,2,4]triazolo[1,5-a]pyrimidine]	–	–	269 µM	12.3 µM	23.4 µM	–
Cc1cc(NC2CCCCC2)n2nc(C(F)(F)F)nc2n1 [Compound 18, 7-Cyclohexylamine-5-methyl-2-(trifluoromethyl)[1,2,4]triazolo[1,5-a]pyrimidine]	–	–	515 µM	8.69 ± 0.46 µM	10 µM	–
Cc1cc(N2CCOCC2)n2nc(C(F)(F)F)nc2n1 [Compound 19]	–	–	>697 µM	> 174 µM	> 174 µM	Inactive
Cc1cc(N2CCN(C)CC2)n2nc(C(F)(F)F)nc2n1 [Compound 20, 5-Methyl-7-(4-methylpiperazin-1-yl)-2-(trifluoromethyl)[1,2,4]triazolo[1,5-a]pyrimidine]	–	–	>666 µM	39 ± 17 µM	57 ± 13 µM	Inactive
Cc1cc(N2CCCC2)n2nc(C(F)(F)F)nc2n1 [Compound 21, 5-Methyl-7-(pyrrolidin-1-yl)-2-(trifluoromethyl)[1,2,4]triazolo[1,5-a]pyrimidine]	–	–	>738 µM	> 184 µM	> 184 µM	Inactive
Cc1cc(Nc2ccccn2)n2nc(C(F)(F)F)nc2n1 [Compound 22, 5-Methyl-7-(pyridin-2-ylamine)-2-(trifluoromethyl)[1,2,4]triazolo[1,5-a]pyrimidine]	–	–	394 µM	> 156 µM	> 170 µM	Inactive
Cc1cc(Nc2nc(C(F)(F)F)n[nH]2)n2nc(C(F)(F)F)nc2n1 [Compound 23, 5-Methyl-2-(trifluoromethyl)-7-(5-(trifluoromethyl)-3-amine-4H-1,2,4-triazolyl)[1,2,4]triazolo[1,5-a]pyrimidine]	–	–	<71 µM	36.9 ± 11.4 µM	31.2 ± 17 µM	Inactive
Cc1cc(-n2cccn2)n2nc(C(F)(F)F)nc2n1 [Compound 24, 5-Methyl-7-(1H-pyrazol-1-yl)-2-(trifluoromethyl)[1,2,4]triazolo[1,5-a]pyrimidine]	–	–	>746 µM	2.1 µM	–	–
Cc1cc(-n2ccnc2)n2nc(C(F)(F)F)nc2n1 [Compound 25, 7-(1H-Imidazol-1-yl)-5-methyl-2-(trifluoromethyl)[1,2,4]triazolo[1,5-a]pyrimidine]	–	–	<93 µM	21 ± 2 µM	15 ± 0.7 µM	–
Cc1cc(-n2cncn2)n2nc(C(F)(F)F)nc2n1 [Compound 26, 5-Methyl-7-(1H-1,2,4-triazol-1-yl)-2-(trifluoromethyl)[1,2,4]triazolo[1,5-a]pyrimidine]	–	–	<93 µM	29.7 µM	33.5 ± 14.9 µM	Inactive
Cc1cc(-n2cccc2)n2nc(C(F)(F)F)nc2n1 [Compound 27, 5-Methyl-7-(1H-pyrrol-1-yl)-2-(trifluoromethyl)[1,2,4]triazolo[1,5-a]pyrimidine]	–	–	>749 µM	97.4 ± 22.5 µM	78.7 ± 7.49 µM	Inactive
CCN(CC)CCCC(C)Nc1cc(C)nc2ncnn12 (stereo not shown) [Compound 28, 5-Methyl-7-N'-(N,N-diethylpentane-1,4-diamine)[1,2,4]triazolo[1,5-a]pyrimidine]	–	–	>689 µM	> 172 µM	> 172 µM	Inactive
